Reference: a melting point compilation (Tetko et al.; mined from patent text by program, amines drawn as free bases though some values may be those of a salt)
Residues, ends and D or L forms follow the SMILES beside them. *: point of attachment. Boc = CC(C)(C)OC(=O)*

Compound	melting point [°C]
COC(=O)CNC(=O)CNC(=O)OC(C)(C)C (Boc-Gly-Gly-OMe)	132 to 135
Cc1nc2c(OCc3ccccc3F)cccn2c1CC#N	172 to 173
O=C(Nc1c[nH]nc1C(=O)NC1CCCC1)c1ccccn1	240 to 241
CC(C)c1n[nH]c2c(NCc3ccccc3Br)ncnc12	194 to 196
O=C1C(Cl)=CC(=NS(=O)(=O)c2cccs2)c2ccccc21	167 to 169
CON(C)Cc1nc2c(N)nc3ccccc3c2n1CC1(O)CCC1	219 to 221
O=C1CC(CF)(CF)Oc2ccc(C(F)(F)F)cc21	73 to 74.5
CC(=O)N1N=C(c2ccc([N+](=O)[O-])cc2)c2cc3c(cc2CC1C)OCO3 (stereo not drawn)	140 to 142
N#Cc1ccc(C=Cc2ccc(C#N)cc2)cc1	288
O=C(Cc1ccccc1)OCCOC(=O)NC1(C(=O)O)CC1	142 to 146
COc1ccc(C2CCN(C(=O)C(N)=O)CC2)cc1OC1CCCC1	66 to 66.5
O=C/C=C/C=C/c1ccc(OCC(F)(F)C(F)F)nc1	88 to 89
Cc1cc(C2=NNC(=O)SC2C)cc2c1NC(=O)C2(C)C (stereo not drawn)	260
CC1(C)Oc2ccc(C#N)cc2[C@@H](NC(=O)CCl)[C@@H]1O (relative stereo)	196 to 197
O=CN1CCN(O)CC1	118 to 124
OCC1CCCc2c1ncn2C(c1ccccc1)(c1ccccc1)c1ccccc1 (stereo not drawn)	168 to 170
Cc1nc(N)c2nc(CO)n(NCc3cccnc3)c2c1C	258 to 260
CCN(CC)C(=O)n1cc(F)c(S(=O)(=O)c2c(Cl)cc(Cl)cc2Cl)n1	89 to 90
COc1ccc2[nH]c3c(C)c4ccnc(NC5CC(C)(C)NC(C)(C)C5)c4cc3c2c1	223 to 225

Compound	melting point [°C]
CCOC(=O)c1cc2c([nH]1)CN(C(=O)OCC(Cl)(Cl)Cl)CC2	126 to 127
CC(C)Cc1sc(-c2nccs2)c2c1C(=O)CC(C)(C)C2	98 to 100
Cc1onc(-c2ccc(C(F)(F)F)cc2)c1CCl	91 to 92
Nc1ccccc1/C=C/c1ncon1	108 to 109
COC(c1nnc2n1-c1ccc(Cl)cc1C(c1ccccc1)=NC2)C1COC(C)(C)O1 (stereo not drawn)	130 to 134
CN1CCN(c2ccc(F)cc2C=C2CCCN(c3ccc(F)c(F)c3)C2=O)CC1	168 to 170
N#CC1(c2ccc(F)cc2)CCC(N2CCC3(CC2)C(=O)NCN3c2ccccc2)CC1 (stereo not drawn)	236
Cc1cc(C)n(C(c2ccccc2)(c2ccccc2)c2ccccc2Cl)n1	195 to 197
CCCCCCCCCCCCCCCCCCCCOC(=O)Cl	33 to 34
OC1CCCN2CCCCC12 (stereo not drawn)	70
COC(=O)CCc1nc(C=O)ccc1OC	95 to 97
CC(=O)C1CCC2C3CCC4CC(O)CCC4(C)C3=CCC12C (stereo not drawn)	160 to 161
O=C1NCCC[C@@H]1NS(=O)(=O)c1cccc(F)c1	159 to 160
COC(=O)c1cc([N+](=O)[O-])c(C)s1	81
CC(C)(C)OC(=O)NNc1ccc(N)cn1	140 to 142
Cc1nc(Cc2ccc(O)cc2)c2c(c1OCCCCNC(C)C)COC2	59 to 61
Cn1c(Nc2cc(C(F)(F)F)ccc2Cl)nc(C(F)(F)F)cc1=O	158 to 159
CCOC(=O)C(=CN(C)C1(CO)CC1)C(=O)c1c(F)c(F)c(F)c(F)c1F	74.5 to 76
COC(=O)c1cnc(OC)c([N+](=O)[O-])c1	118 to 119

Compound	melting point [°C]
CN1CCC23CC(=O)CCC2C1Cc1ccccc13 (stereo not drawn)	164 to 166
C[Si](C)(C)c1[nH]c2ccccc2c1C1CC1	78 to 81
Cc1cc(F)cc(-c2ccc3c(c2)C2(CCCCC2)C(=O)N3)c1	180 to 182
FC(F)(F)c1cccc2nc3c4ccccc4c4ccccc4c3nc12	195 to 196
Cc1cc(Oc2ncc(C(F)(F)F)cc2Cl)nn1C(=O)NC1CCCCC1	69 to 71
c1ccc(COc2cccn3ccnc23)cc1	110
N#Cc1c(N2CCc3ccccc3CC2)nc[nH]c1=O	139 to 140
CSc1cn(C(c2ccccc2)(c2ccccc2)c2ccccc2)c(F)n1	142 to 143
COC1(c2cccc(S(=O)(=O)c3ccc4c(c3)C(C)(C)C(=O)N4C)c2)CCOCC1	164 to 166
CCc1c(C)[nH]c2c1C(=S)C1CNCCC1C2 (stereo not drawn)	190 to 194
CCOC(=O)c1cc(-c2csc(C(=O)OCC)n2)[nH]n1	104 to 106
CC(C)n1cc2c3c(cccc31)C1CC(C(=O)NC3CCCC3O)CN(C)C1C2 (stereo not drawn)	232 to 234
Cc1cc(-c2cnn3c(C(F)(F)F)cc(-c4ccc(F)c(Cl)c4)nc23)ccn1	292
CCOc1nnc2cc(Cl)ccc2n1	90 to 92
CN(c1cncnc1)c1nc(N2CCOCC2)nc(-n2c(C(F)F)nc3ccccc32)n1	202 to 205
CCOC1CC(n2cc(CC)c(=O)[nH]c2=O)OC1CN (stereo not drawn)	122 to 123
CCCCCCCCCCN(O)C(=O)NCCCCCCC(=O)OC	81 to 82
Oc1cc(O)cc(OCc2ccccc2)c1	85 to 86
Cc1noc(C)c1S(=O)(=O)n1c(=O)oc2ccccc21	133 to 135

The next lines start with the values.

melting point [°C]	Compound
166 to 168	O=c1[nH]c2ccc(S(=O)CCN3CCC(Cc4ccc(F)cc4F)CC3)cc2o1 (stereo not drawn)
226 to 228	O=c1ccccn1[C@@H]1c2cc([N+](=O)[O-])ccc2OC(CF)(CF)[C@H]1O (relative stereo)
280 to 281	O=Cc1cccc2c1[nH]c1c3cc(Br)ccc3oc21
130	CCOC(=O)c1ccc(OCCC2CCN(c3ccc(C)nn3)CC2)cc1
145 to 147	NC(=O)CC[C@H](NC(=O)CCc1ccc(OCc2ccccc2)cc1OCc1ccccc1)C(=O)N1CCN(Cc2ccccc2)CC1
121 to 124	CN(NC=C1CSc2ccc(Cl)cc2C1=O)C(=O)OC(C)(C)C
99	COC(=O)c1ccc(Cc2cc3cc(Cl)ccc3n2S(=O)(=O)c2ccc(C(C)C)cc2)cc1
125 to 127	CC(=O)Nc1ccc(OCCCCl)cc1
265 to 266	CC(=O)N[C@H](CC(N)=O)C(=O)Nc1ccc(-c2ccc(C(=O)O)c(=O)[nH]2)cc1
71.5 to 73.5	CCC(=O)OCCc1ccc2c(c1)C(=O)c1ccccc1CO2
140 to 143	Cc1ccc(S(=O)(=O)n2cc(CO)nc2C)cc1
133 to 134	COC(=O)C(=C(/C)c1ccc(OC2CCCC2)c(OC)c1)/C(=C\c1ccccc1)C(N)=O
157 to 159	COc1cc(NC(C)=O)ccc1OCCO
178	COc1cccc(C(=O)Nc2ccc3ccc(Cl)nc3n2)c1
102	COC(=O)CNC(=O)NC(CSC(C)=O)Cc1ccccc1 (stereo not drawn)
185	CC(=O)Nc1cccnc1NC(=O)C(C)(C)Oc1cccc(Cl)n1
> 300	N=C(N)Nc1ccc(CCC(=O)O)cc1
106 to 108	O=C1c2ccccc2C(=O)N1CCN1CCC(=C(c2ccccc2)c2ccccc2)CC1
242 to 245	Cn1nc(-c2ccc(O)cc2)ccc1=O
218 to 220	CC(=O)NC(CSSc1ccccc1C(=O)Nc1ccc(S(N)(=O)=O)cc1)C(=O)O (stereo not drawn)
248 to 249	CCc1c(N2CCC(N)CC2)c(F)cc2c(=O)c(C(=O)O)cn(C3CC3)c12
260 to 261	CCCc1nn(C)c2c(=O)[nH]c(Cc3ccc(NC=O)cc3)nc12
201 to 203	COc1ccc(S(=O)(=O)Cl)c2c3ccccc3n(C=O)c12

melting point [°C]	Compound
114 to 116	CCCCNC(=O)c1ccc(C(F)(F)F)c(-n2nc(CC)n(Cc3ccc(-c4ccccc4S(=O)(=O)NC(=O)OC(C)(C)C)cc3F)c2=O)c1
180 to 182	CCCCCSc1cc(C(=O)O)cc(S(N)(=O)=O)c1Oc1ccccc1
157 to 161	CC(=O)Nc1cccc(C(=O)NCc2ccc(-n3c(-c4cccnc4N)nc4ccc(C)nc43)cc2)c1
138 to 140	CC(C)CC(NC(=O)N1CCc2cc(S(=O)(=O)N3CCN(c4cccc(Cl)c4)CC3)ccc21)C(=O)O (stereo not drawn)
106 to 108	CCC(=O)Nc1cccc(C(=O)C=CN(C)C)c1
164	Nc1ccc(OCCCN2C(=O)c3ccccc3C2=O)cc1[N+](=O)[O-]
58 to 60	CC(=CC(=O)O)c1ccc(-c2ccc(F)cc2)cc1
179 to 180	COc1ccc(-c2ccc(C(=O)Nc3cccc(CC(=O)O)c3)o2)cc1
200 to 201	CC1(C)C(c2ccccc2)=Nc2ccc(C3=NNC(=O)CC3)cc21
121 to 122	COCC(=O)c1cccc(S(N)(=O)=O)c1
137 to 142	Nc1ccc(Nc2ccc(CCc3ccc(Cl)c(Cl)c3)cc2)c(C(=O)O)c1
190 to 192	O=S(=O)(Nc1ccc2c(OCc3nc4ccccc4s3)cccc2c1)C(F)(F)F
201 to 204	CCc1nc2cc(C(=O)NC)c(Cl)cc2n1-c1ccc(CCOC(=O)NS(=O)(=O)c2ccc(C)cc2)cc1
75 to 76	CCOC(=O)c1ccc(CCN2CCN(Cc3ccc(OC)cc3)CC2)cc1
122 to 124	N#CCc1cccc(-c2onc3ccccc23)c1
235	CCCc1ccc2c(c1)C=Cc1sc(C)nc1C2c1cn(C)c(=O)[nH]c1=S (stereo not drawn)
218 to 220	O=C(O)CCCN1C(=O)c2ccc(C(=O)O)cc2C1=O
183 to 185	CCN1C(=O)CCCc2c1ccc(Nc1ncc(Cl)c(Nc3ccccc3-n3cccn3)n1)c2OC
137 to 138	O=C(NO)c1ccc(CNC(=O)c2[nH]c(-c3ccccc3)cc2-c2ccc(C(F)(F)F)cc2)cc1
167 to 168	CSc1cc(C(F)(F)F)nn1-c1ccc(NC(=O)c2cccnc2F)cc1
174 to 175	CCN(CC)CC(=O)N1c2ccccc2NC(=O)c2c1c(C)cn2C
59 to 60	CCOC(=O)[C@H](C[C@H](Cc1ccc(OC)c(OCCCOC)c1)C(C)C)NC(=O)OC(C)(C)C
230	CCCC(=O)Nc1n[nH]c2cc(Cl)c(-c3ccc(OCc4ccccc4)cc3)cc12
